The source of these data is PubChem BioAssay (NCI).

Values joined by “and” are separate entries in the source; they are usually repeats but may differ in a detail not shown here. Identical values can stand only once.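 Growth conditions: 96-well plates. Treatment: test compound, 48 hours, 5 concentrations. Analysis: linear interpolation between bracketing concentrations; unreached endpoints set to highest concentration. Abbreviation: GI50, concentration required for 50% inhibition of growth. The concentration for full growth arrest is given as TGI.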 Some results are limits rather than exact numbers.

Test systems include M14 melanoma; RXF 393 renal; LOX IMVI melanoma; HT29 colon; UO-31 renal; HS 578T breast; HOP-62 NSCLC; T-47D breast; HCT-116 colon; HL-60(TB) leukemia.
Holding throughout (assay): NCI anticancer screen, dose series, 48 h

For `N#C[S-].[La+3].c1ccc(-c2ccccn2)nc1.c1ccc(-c2ccccn2)nc1.c1ccc(-c2ccccn2)nc1`, the GI50 with M14 melanoma is 12.1 µM; with RXF 393 renal, 22.5 µM; in the test with LOX IMVI melanoma it was 7.3 µM; with HT29 colon it was 18.7 µM; with UO-31 renal it was 10.8 µM. For the same compound, the TGI in the test on M14 melanoma is 27.9 µM; in the test on RXF 393 renal, 84.7 µM; with LOX IMVI melanoma it was 68.3 µM; with HT29 colon, > 100 µM; in the test on UO-31 renal, 55.9 µM.

On to `Clc1cc(N/N=C(\c2ccccc2)c2ccccn2)ncn1`, for which the TGI was > 100 µM with HS 578T breast; > 100 µM with M14 melanoma; > 100 µM with RXF 393 renal; 0.665 µM in the test on HOP-62 NSCLC; 1.74 µM with LOX IMVI melanoma; 45.2 µM with T-47D breast. The TGI in the test on HT29 colon and in the test with HCT-116 colon was > 100 µM in each case.

`Brc1ccc2[nH]c3c(C4=NCCC4)nccc3c2c1`: the TGI is 71.2 µM in the test on RXF 393 renal; > 42.2 µM in the test with HOP-62 NSCLC; > 46.6 µM in the test with LOX IMVI melanoma; > 38.7 µM with HT29 colon; 18.6 µM in the test on HL-60(TB) leukemia; > 23.2 µM with HCT-116 colon. In the test with UO-31 renal, this compound had a TGI of 37 µM.

Take `CC1OC(OC2C(O)CC(OC3C(O)CC(OC4CCC5(C)C(CCC6C5CCC5(C)C(C7=CC(=O)OC7)C(O)CC65O)C4)OC3C)OC2C)CC(O)C1O` (stereo not given): the TGI in the test on HS 578T breast is > 100 µM; with M14 melanoma it was 1.99 µM; with RXF 393 renal it was 0.299 µM; in the test with HOP-62 NSCLC it was 2.66 µM; with LOX IMVI melanoma it was 0.235 µM; with T-47D breast it was 4.72 µM. Besides, the TGI in the test on HT29 colon amounted to 0.886 µM; with HL-60(TB) leukemia, 1.23 µM; with HCT-116 colon, 0.576 µM; with UO-31 renal, 1.15 µM.

On to `Cc1ccc(S(=O)(=O)OC[C@@]2(C)CC[C@]3(C)CC[C@]4(C)C(=C3C2)C=C[C@@H]2[C@@]3(C)CCCNC(C)(C)[C@@H]3CC[C@]24C)cc1`, for which the GI50 in the test with HS 578T breast was 1.94 µM; in the test with RXF 393 renal, 1.35 µM; in the test with T-47D breast, 1.55 µM; in the test with UO-31 renal, 1.46 µM. The TGI in the test on HS 578T breast came to 4.26 µM; in the test with RXF 393 renal it was 2.86 µM; in the test with T-47D breast, 3.26 µM; in the test with UO-31 renal, 2.85 µM.

As to `CCOC(=O)c1ccc(N(CCOS(C)(=O)=O)CCOS(C)(=O)=O)cc1`, the TGI is > 100 µM in the test on HS 578T breast; > 100 µM in the test on M14 melanoma; 38.5 µM in the test on RXF 393 renal; > 100 µM in the test on LOX IMVI melanoma; > 100 µM with T-47D breast; > 100 µM in the test on HT29 colon. The TGI is > 100 µM in the test with HL-60(TB) leukemia, > 100 µM in the test on HCT-116 colon and 39.3 µM with UO-31 renal.

On to `Oc1c(Br)cc2c(c1Br)-c1c(c(O)c3c4c1=NCCC=4C=N3)NCC2`, for which the TGI with RXF 393 renal was 28.7 µM; in the test on HOP-62 NSCLC, > 66.3 µM; in the test on LOX IMVI melanoma, 20.9 µM; in the test on HT29 colon, 20.8 µM; in the test on HL-60(TB) leukemia it was 16.9 µM; with HCT-116 colon, 28.8 µM. This compound registered a TGI with UO-31 renal of 39.8 µM.

In the case of `CCCCCCCCCCCC1N=C(N)N=C(N)N1c1cccc(Br)c1` (stereo not given), the GI50 in the test with HS 578T breast was 2.08 µM; in the test on HT29 colon, 0.412 µM; with HCT-116 colon, 0.216 µM; with UO-31 renal, 4.89 µM. The TGI in the test on HS 578T breast came to 4.77 µM; with HT29 colon, 1.71 µM; in the test with HCT-116 colon, 1.5 µM; in the test with UO-31 renal, 13 µM.

With `O=c1cc(-c2cccc(OC(F)(F)F)c2)[nH]c2ccc(N3CCCC3)cc12`, the TGI is 86.2 µM with HS 578T breast; > 100 µM with M14 melanoma; 0.738 µM in the test with RXF 393 renal; > 100 µM with T-47D breast; 0.00166 µM in the test with HT29 colon; < 0.0001 µM with HL-60(TB) leukemia. Further, the TGI in the test on HCT-116 colon is 0.177 µM and 1.76 µM; with UO-31 renal, > 100 µM.

As for `Cc1c2cc[n+](Cc3ccc(I)cc3)cc2c(C)c2c1[nH]c1ccccc12`, the TGI with RXF 393 renal was > 25 µM; with HOP-62 NSCLC it was > 21.7 µM; with LOX IMVI melanoma, > 25 µM; in the test on HT29 colon it was > 25 µM; in the test on HL-60(TB) leukemia, 1.11 µM; in the test on HCT-116 colon, > 16.8 µM. The same compound displayed a TGI in the test with UO-31 renal of 15.8 µM.

As to `[CH3][Sn]([CH3])([CH3])[S]C(=S)N1CCOCC1`, the GI50 with RXF 393 renal is 0.7 µM; in the test with HOP-62 NSCLC it was 2.28 µM; in the test on LOX IMVI melanoma it was 1.39 µM; in the test with HT29 colon, 0.28 µM; in the test with HL-60(TB) leukemia it was 0.217 µM; in the test on HCT-116 colon, 0.146 µM. The GI50 in the test on UO-31 renal is 6.24 µM. The TGI with HOP-62 NSCLC is 4.86 µM; in the test with LOX IMVI melanoma it was 6.75 µM; with HT29 colon, 1.5 µM; in the test on HL-60(TB) leukemia it was 1.3 µM; in the test with HCT-116 colon, 2.03 µM; with UO-31 renal it was > 25.1 µM.

Take `O=C(Nc1cccc(-n2ccc3c(NC(=O)c4ccccc4)ncnc32)c1)Nc1ccc(Cl)c(C(F)(F)F)c1`: the GI50 is 2.55 µM in the test on HS 578T breast; 1.75 µM in the test on M14 melanoma; 1.68 µM with RXF 393 renal; 5.62 µM in the test on HOP-62 NSCLC; 2.82 µM in the test with LOX IMVI melanoma; 2.61 µM in the test on T-47D breast. For the same compound, the GI50 in the test with HT29 colon was 1.87 µM; in the test with HL-60(TB) leukemia, 1.87 µM; with HCT-116 colon it was 1.85 µM; in the test with UO-31 renal, 3.44 µM. In addition, the TGI with HS 578T breast is 22.6 µM; in the test on M14 melanoma, 5.98 µM; with RXF 393 renal, 6.66 µM; in the test on HOP-62 NSCLC, 11.8 µM; in the test with LOX IMVI melanoma, 15 µM; with T-47D breast it was 9.85 µM. Moreover, the TGI in the test on HT29 colon is 7.87 µM; with HL-60(TB) leukemia, 5.28 µM; with HCT-116 colon, 6.66 µM; in the test with UO-31 renal, 10.9 µM.
